What was measured:
MuSCs [1] = assay: PKH-67 tracing of exosome transfer from FAPs to MuSCs in transwell co-culture; format: cell-based, mdx mice; conditions: PKH67-labelled FAPs exposed to GW4869
Description: To stain FAPs derived exosomes, FAP cells were incubated with the lipidic dye PKH-67 (#P7333, Sigma) according to manufacturer instructions prior to transwell co-culture with MuSCs.
To analyse the capacity of MuSCs to uptake FAP-derived exosomes, we performed a transwell co-culture in which the potential “source” of exosomes—FAPs—was […] prior to transwell co-culture with the “acceptor” cells—MuSCs. […] PKH-67 is incorporated into newly generated exosomes, and therefore traces their passage to acceptor cells.

[2] = test system: MuSCs within single fibres; assay: Single muscle fibres incubated with FAP conditioned media or exosomes (Pax7, MyoD, EdU); format: cell-based, C57BL6J-WT mice
Description: Single fibers were isolated using Pasut (2013) and Moyle's protocol (2014) from tibialis anterior, extensor digitorum longus, gastrocnemius and soleus muscles of C57BL6J-WT mice and cultured in proliferating medium (GM1: DMEM+pyruvate+4.5 g/l glucose+glutamate, 10% horse serum (HS), 0.5% Chicken Embryo Extract) for 24 hours, then exposed for the next 24 hrs to GM1 conditioned media derived from culture of FAPs (MEDIA-FAPs) isolated from young mdx mouse treated for 15 days with vehicle (CTR) or mdx mice treated with TSA (TSA) or media isolated from FAPs CTR and TSA pre-treated with the GW4869 to inhibit exosome biogenesis. In a parallel, independent experiment, single fibers were exposed to exosomes (EXO-FAPs) purified from MEDIA-FAPs and added to GM1 for 24 hours.
In ex-vivo experiments FAP-derived Exosomes (10·g) isolated by TEIR were put in culture with MuSCs or with myofibers in the cell culture media.
To investigate this hypothesis, we evaluated the effect of FAP-derived exosomes from HDACi-treated or control-treated mdx mice on MuSCs within single fibres isolated from WT mice. Freshly isolated single muscle fibres from tibialis anterior, extensor digitorum longus, gastrocnemius and soleus of C57BL6J mice were incubated with FAP-derived exosomes or whole conditioned media, and their effect on MuSCs was evaluated by monitoring the expression of Pax7, MyoD and DNA synthesis (EdU incorporation). In this experimental setting, the uptake of FAP-derived exosomes by MuSCs from single fibers was first confirmed by staining of lipidic dye PKH-67 used on purified vesicles (FIG. 6B).

MuSCs [3] = assay: Transwell co-culture of FAPs with MuSCs, myogenic differentiation (fusion index); format: cell-based, mdx mice; conditions: FAPs exposed to GW4869 (10 uM) before transwell co-culture
Description: MuSCs and FAP cells were co-cultured by using inserts with 1.0 μm porous membrane to avoid direct contact between populations.
Cell culture inserts with 1.0-·m pore (#353102, #353104, Falcon) and 6 or 24 -well culture plates (BD Bioscience) were used for transwell co-culture. Freshly sorted MuSCs were plated in the bottom of the plate, while FAP cells were plated on the upper insert.
To decrease FAP-exosomes release, GW4869 (10 uM, #D1692, Sigma) was added to FAPs culture 30′ before the co-culture setting with MuSCs. To wash away any residual trace of GW4869, FAPs media was refreshed right before co-culture.
For Drosha SiRNA treatments, in vivo TSA treated FAPs on transwell were transfected with commercially available Drosha siRNA using Dharmafect3.0 (Dharmacon) according to manufacturer instructions; after 6 hours FAPs were put in co-culture with MuSCs.
We began to determine the identity of the extracellular mediators of FAP's support to MuSCs in DMD muscles, by performing transwell co-cultures between FAPs isolated from 1.5 month old mdx mice and MuSCs isolated from age-matched mdx mice. In transwell cultures, cells are separated by a membrane of 1 μm pore size that prevents direct cell contact, yet allows reciprocal transfer of soluble mediators of functional interactions between co-cultured cells.

muscles of DMD patients = conditions: phase I/II clinical trial, after one year of treatment; cited from earlier work
[4] = test system: animals affected by muscular dystrophy; conditions: in vivo; cited from earlier work
preclinical model of DMD = conditions: Colussi et al. 2010; cited from earlier work
[5] = supernatant of FAPs from control-treated mdx mice pre-exposed to GW4869

Question: What does the source list for `O=C(/C=C/c1ccc(/C=C/C(=O)Nc2ccc(C3=NCCN3)cc2)cc1)Nc1ccc(C2=NCCN2)cc1` [GW4869]?
Answer: prevention of detection of the PKH-67 signal in MuSCs co-cultured with FAPs (MuSCs [1]): more than 80%; ability of the whole supernatant to increase all MuSC populations as well as their proliferation ([2]; GW4869 treatment of FAPs from TSA-treated mdx mice): drastically reduced; number of Pax7+/MyoD+ MuSCs with high DNA synthesis (Edu+) [2, 5]: not altered; number of quiescent (Pax7+MyoD−) and differentiation-committed (Pax7- MyoD+) MuSCs [2, 5]: drastic reduction; FAP's ability to enhance MuSCs differentiation into multinucleated myotubes (MuSCs [3]): abrogated

Question: Which “histology of the muscles of DMD patients” value (muscles of DMD patients) does the source give for `CCN(CC)Cc1ccc2cc(COC(=O)Nc3ccc(C(=O)NO)cc3)ccc2c1` [Givinostat] here?
Answer: The value was “positively affect”.

Question: What about the “activity in the treatment of animals affected by muscular dystrophy” value (from here on “activity in the treatment”) [4] of the same molecule?
Answer: Its value is “active”.

Question: With `Nc1ccccc1NC(=O)c1ccc(CNC(=O)OCc2cccnc2)cc1` [MS-275] as the molecule, how does the “activity in the treatment” value [4] read?
Answer: Its value is “active”.

Question: For `O=C(CCCCCCC(=O)Nc1ccccc1)NO` [Vorinostat], which “activity in the treatment” value [4] is on record?
Answer: Its value is “active”.

Question: What about the dose response curve (preclinical model of DMD) of the same molecule?
Answer: The dose response curve was “bell-shaped”.

Reference: US20210268030A1, “FIBROADIPOGENIC PROGENITOR-DERIVED EXOSOMES FOR REGENERATION OF DYSTROPHIC MUSCLES” (EXOFIX S.R.L., priority 2018, published 2021)
